Results on 14 molecules are retold here after US20250179103A1, “6-OXODECAHYDROPYRROLO[1,2-A][1,5]DIAZOCINE AND 6-OXODECAHYDRO-4H-PYRROLO[2,1-D][1,5]THIAZOCINE DERIVATIVES AS STAT3 AND STAT6 MODULATORS FOR THE TREATMENT OF CANCER AND INFLAMMATORY CONDITIONS” (Recludix Pharma, Inc., priority 2022, published 2025).

For orientation: IC50 means the midpoint of a concentration-inhibition curve.

For assay [1], the target named is T1, Recombinant STAT3 protein (STAT3(G127-I722)) (Homo sapiens, UniProt P40763).
T1 construct: Recombinant STAT3 protein (STAT3(G127-I722))
T1 sequence (P40763 127-722): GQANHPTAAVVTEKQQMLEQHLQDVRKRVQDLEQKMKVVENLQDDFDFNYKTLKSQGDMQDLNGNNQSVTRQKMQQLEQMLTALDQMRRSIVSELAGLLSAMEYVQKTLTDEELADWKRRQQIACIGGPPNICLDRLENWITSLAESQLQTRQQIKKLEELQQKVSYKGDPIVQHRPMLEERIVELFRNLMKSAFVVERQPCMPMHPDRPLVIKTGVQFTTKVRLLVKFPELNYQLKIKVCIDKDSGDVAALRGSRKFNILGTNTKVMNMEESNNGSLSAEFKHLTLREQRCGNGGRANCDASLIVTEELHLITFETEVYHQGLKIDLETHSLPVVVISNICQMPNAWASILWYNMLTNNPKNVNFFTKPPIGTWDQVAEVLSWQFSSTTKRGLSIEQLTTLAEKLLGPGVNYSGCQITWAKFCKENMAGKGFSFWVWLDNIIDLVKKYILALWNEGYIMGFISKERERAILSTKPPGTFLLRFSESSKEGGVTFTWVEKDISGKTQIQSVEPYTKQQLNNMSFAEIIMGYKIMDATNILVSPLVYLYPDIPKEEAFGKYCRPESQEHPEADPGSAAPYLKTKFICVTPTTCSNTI
Briefly: STAT3 Fluorescence Polarization (FP) Assay. It is filed as binding. The following applies: STAT3(G127-I722) 25 nM, probe 5-FAM-GpYLPQTV-NH2 2 nM, 45-minute incubation. An outline of the steps: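 STAT3(G127-I722), 25 nM, was mixed with 2 nM 5-FAM-GpYLPQTV-NH2 probe in HEPES pH 7.4 buffer with 1% DMSO and serially diluted compound. FP (mP) was read after 45 min at room temperature. IC50 came from nonlinear regression.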

Assay [2] concerns the target T2, Recombinant STAT6 protein (STAT6(W123-T658)) (Homo sapiens, UniProt P42226).
T2 construct: Recombinant STAT6 protein (STAT6(W123-T658))
T2 sequence (P42226 123-658): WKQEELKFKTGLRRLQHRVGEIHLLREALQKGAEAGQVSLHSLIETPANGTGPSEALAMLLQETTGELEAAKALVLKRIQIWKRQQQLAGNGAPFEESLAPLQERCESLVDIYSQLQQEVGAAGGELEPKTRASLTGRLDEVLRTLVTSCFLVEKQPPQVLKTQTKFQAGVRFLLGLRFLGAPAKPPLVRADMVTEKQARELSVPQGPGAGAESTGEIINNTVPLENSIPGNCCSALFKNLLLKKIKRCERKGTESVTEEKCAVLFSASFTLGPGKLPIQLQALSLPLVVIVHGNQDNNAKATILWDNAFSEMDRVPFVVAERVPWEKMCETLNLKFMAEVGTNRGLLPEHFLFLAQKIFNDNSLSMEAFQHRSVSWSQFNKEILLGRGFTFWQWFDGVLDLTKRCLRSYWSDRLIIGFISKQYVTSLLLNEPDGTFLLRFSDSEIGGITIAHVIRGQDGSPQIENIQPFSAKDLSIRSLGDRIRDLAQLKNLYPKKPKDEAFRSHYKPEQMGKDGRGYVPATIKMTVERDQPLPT
Briefly: STAT6 Fluorescence Polarization (FP) Assay. The assay is classed as binding. As to conditions: STAT6(W123-T658) 250 nM, probe 5-FAM-ApYKPFQDLI-NH2 2 nM, 45-minute incubation. An outline of the steps: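 Displacement of a fluorescent phosphotyrosine peptide (5-FAM-ApYKPFQDLI-NH2, 2 nM) from STAT6(W123-T658) (250 nM), 1% DMSO, pH 7.4 HEPES buffer. After 45 min at room temperature, polarization (mP) was plotted versus log compound concentration and fitted by nonlinear regression to give IC50.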
A general note: Fluorescence polarisation rises when a labelled molecule tumbles more slowly, as on binding a larger partner.

For `COC(=O)[C@@H]1CN(C(=O)[C@@H]2CC[C@@H]3CCN(CC(F)F)C[C@H](NC(=O)c4cc5cc(C(F)(F)P(=O)(O)O)ccc5s4)C(=O)N32)C[C@H]1c1ccccc1` (single isomer, unassigned) [Compound 247, ((2-(((5S,8S,10aR)-3-(2,2-difluoroethyl)-8-((3S,4R or 3R,4S)-3-(methoxycarbonyl)-4-phenylpyrrolidine-1-carbonyl)-6-oxodecahydropyrrolo[1,2-a][1,5]diazocin-5-yl)carbamoyl)benzo[b]thiophen-5-yl)difluoromethyl)phosphonic acid], the IC50 in assay [1] is 0.1 to 1 µM; in assay [2], at most 0.3 µM.
Taken in the same sequence, the figures for `N#C[C@@H]1CN(C(=O)[C@@H]2CC[C@@H]3CCN(CC(F)F)C[C@H](NC(=O)c4ccc5ccc(C(F)(F)P(=O)(O)O)cc5c4)C(=O)N32)C[C@H]1c1ccccc1` (single isomer, unassigned) [Compound 248, ((7-(((5S,8S,10aR)-8-((3S,4R or 3R,4S)-3-cyano-4-phenylpyrrolidine-1-carbonyl)-3-(2,2-difluoroethyl)-6-oxodecahydropyrrolo[1,2-a][1,5]diazocin-5-yl)carbamoyl)naphthalen-2-yl)difluoromethyl)phosphonic acid] were 1 to 10 µM and at most 0.3 µM.
For `Cc1ccc2onc(C(=O)N3CC[C@H]4CC[C@@H](C(=O)N5C[C@@H](C#N)[C@H](c6ccccc6)C5)N4C(=O)[C@@H](NC(=O)c4ccc5ccc(C(F)(F)P(=O)(O)O)cc5c4)C3)c2c1` (single isomer, unassigned) [Compound 375], the values for the IC50 in assay [1] and in assay [2] were 1 to 10 µM and at most 0.3 µM, respectively.
For the molecule `CC(=O)N1CC[C@H]2CC[C@@H](C(=O)N(C)c3ccc(C(C)(C)C#N)cc3)N2C(=O)[C@@H](NC(=O)c2cc3cc(C(F)(F)P(=O)(O)O)ccc3s2)C1` [Compound 2, ((2-(((5S,8S,10aR)-3-acetyl-8-((4-(2-cyanopropan-2-yl)phenyl)(methyl)carbamoyl)-6-oxodecahydropyrrolo[1,2-a][1,5]diazocin-5-yl)carbamoyl)benzo[b]thiophen-5-yl)difluoromethyl)phosphonic Acid], the IC50 was above 10 µM in assay [1] and 0.3 to 3 µM in assay [2].
As for `CN(C(=O)[C@@H]1CC[C@@H]2CCN(C(=O)Cc3ccccc3)C[C@H](NC(=O)c3cc4cc(C(F)(F)P(=O)(O)O)ccc4[nH]3)C(=O)N21)c1ccccc1` [Compound 3, (difluoro(2-(((5S,8S,10aR)-8-(methyl(phenyl)carbamoyl)-6-oxo-3-(2-phenylacetyl)decahydropyrrolo[1,2-a][1,5]diazocin-5-yl)carbamoyl)-1H-indol-5-yl)methyl)phosphonic acid], the values for the IC50 in assay [1] and in assay [2] were 1 to 10 µM and 0.3 to 3 µM, respectively.
As for `CC(=O)N1CC[C@H]2CC[C@@H](C(=O)N[C@H]3CN(S(C)(=O)=O)C[C@@H]3O)N2C(=O)[C@@H](NC(=O)c2cc3cc(C(F)(F)P(=O)(O)O)ccc3s2)C1` [Compound 6, ((2-(((5S,8S,10aR)-3-acetyl-8-(((3S,4S)-4-hydroxy-1-(methylsulfonyl)pyrrolidin-3-yl)carbamoyl)-6-oxodecahydropyrrolo[1,2-a][1,5]diazocin-5-yl)carbamoyl)benzo[b]thiophen-5-yl)difluoromethyl)phosphonic Acid], the values for the IC50 in assay [1] and in assay [2] were 1 to 10 µM and 0.3 to 3 µM, respectively.
On to `CC(=O)N1CC[C@H]2CC[C@@H](C(=O)N3CCC4C3CN4c3ccccc3)N2C(=O)[C@@H](NC(=O)c2cc3cc(C(F)(F)P(=O)(O)O)ccc3s2)C1` (stereo partly drawn) [Compound 11, ((2-(((5S,8S,10aR)-3-acetyl-6-oxo-8-(6-phenyl-2,6-diazabicyclo[3.2.0]heptane-2-carbonyl)decahydropyrrolo[1,2-a][1,5]diazocin-5-yl)carbamoyl)benzo[b]thiophen-5-yl)difluoromethyl)phosphonic acid], for which the IC50 was in the range of 0.1 to 1 µM in assay [1] and 0.3 to 3 µM in assay [2].
On the same counts, the results for `CC(=O)N1CC[C@H]2CC[C@@H](C(=O)N(C)c3ccccc3)N2C(=O)[C@@H](NC(=O)c2ccc3ccc(C(F)P(=O)(O)O)cc3c2)C1` (stereo partly drawn) [Compound 14, ((7-(((5S,8S,10aR)-3-acetyl-8-(methyl(phenyl)carbamoyl)-6-oxodecahydropyrrolo[1,2-a][1,5]diazocin-5-yl)carbamoyl)naphthalen-2-yl)fluoromethyl)phosphonic acid] are above 10 µM and 0.3 to 3 µM.
Take `CC(=O)N1CC[C@H]2CC[C@@H](C(=O)N(C)c3ccccc3)N2C(=O)[C@@H](NC(=O)c2ccc3ccc(CP(=O)(O)O)cc3c2)C1` [Compound 15, ((7-(((5S,8S,10aR)-3-acetyl-8-(methyl(phenyl)carbamoyl)-6-oxodecahydropyrrolo[1,2-a][1,5]diazocin-5-yl)carbamoyl)naphthalen-2-yl)methyl)phosphonic acid]: the IC50 is above 10 µM in assay [1] and 3 to 30 µM in assay [2].
Consider `CC(=O)N1CC[C@H]2CC[C@@H](C(=O)N(C)c3ccccc3)N2C(=O)[C@@H](NC(=O)c2cc3cc(C(C#N)P(=O)(O)O)ccc3s2)C1` (stereo partly drawn) [Compound 16, ((2-(((5S,8S,10aR)-3-acetyl-8-(methyl(phenyl)carbamoyl)-6-oxodecahydropyrrolo[1,2-a][1,5]diazocin-5-yl)carbamoyl)benzo[b]thiophen-5-yl)(cyano)methyl)phosphonic acid], for which the IC50 is above 10 µM in assay [1] and above 30 µM in assay [2].
`CC(=O)N1CC[C@H]2CC[C@@H](C(=O)Nc3ccc(-c4ccccc4)cc3)N2C(=O)[C@@H](NC(=O)c2cc3cc(C(F)P(=O)(O)O)ccc3s2)C1` (stereo partly drawn) [Compound 17, ((2-(((5S,8S,10aR)-8-([1,1′-biphenyl]-4-ylcarbamoyl)-3-acetyl-6-oxodecahydropyrrolo[1,2-a][1,5]diazocin-5-yl)carbamoyl)benzo[b]thiophen-5-yl)fluoromethyl)phosphonic acid]: the IC50 in assay [1] is 1 to 10 µM; in assay [2], 0.3 to 3 µM.
Turning to `CC(=O)N1CC[C@H]2CC[C@@H](C(=O)N(C)c3ccccc3)N2C(=O)[C@@H](NC(=O)c2cc3cc(C(C)(F)P(=O)(O)O)ccc3s2)C1` (stereo partly drawn) [Compound 18, (1-(2-(((5S,8S,10aR)-3-acetyl-8-(methyl(phenyl)carbamoyl)-6-oxodecahydropyrrolo[1,2-a][1,5]diazocin-5-yl)carbamoyl)benzo[b]thiophen-5-yl)-1-fluoroethyl)phosphonic acid], the figures for the IC50 in assay [1] and in assay [2] were above 10 µM and 3 to 30 µM, respectively.
In the case of `CC(=O)N1CC[C@H]2CC[C@@H](C(=O)N(C)c3ccccc3)N2C(=O)[C@@H](NC(=O)c2cc3cc(C(CO)P(=O)(O)O)ccc3s2)C1` (stereo partly drawn) [Compound 19, (1-(2-(((5S,8S,10aR)-3-acetyl-8-(methyl(phenyl)carbamoyl)-6-oxodecahydropyrrolo[1,2-a][1,5]diazocin-5-yl)carbamoyl)benzo[b]thiophen-5-yl)-2-hydroxyethyl)phosphonic acid], the IC50 was above 10 µM in assay [1] and above 30 µM in assay [2].
On the same counts, the results for `CC(=O)N1CC[C@H]2CC[C@@H](C(=O)N(C)c3ccccc3)N2C(=O)[C@@H](NC(=O)c2cc3cc(C(C)P(=O)(O)O)ccc3s2)C1` (stereo partly drawn) [Compound 20, (1-(2-(((5S,8S,10aR)-3-acetyl-8-(methyl(phenyl)carbamoyl)-6-oxodecahydropyrrolo[1,2-a][1,5]diazocin-5-yl)carbamoyl)benzo[b]thiophen-5-yl)ethyl)phosphonic acid] are above 10 µM and above 30 µM.
